Source: US6274715A, “Tricyclic erythromycin derivatives” (priority 1997, dated 2001)
Converted amounts (≈) assume the structure as drawn.

Tests used:
Assay type in all cases: cell-based
[1] = system: STAPHYLOCOCCUS AUREUS ATCC 6538P; assay: In vitro antibacterial activity, MIC, BHI agar dilution; settings: S. aureus ATCC 6538P, 35-37° C., 20 to 24 hours, unit assumed
[2] = system: STAPHYLOCOCCUS AUREUS A5177; assay: as above; settings: S. aureus A5177, unit assumed
[3] = system: STAPHYLOCOCCUS AUREUS A-5278; assay: as above; settings: S. aureus A-5278, unit assumed
[4] = system: STAPHYLOCOCCUS AUREUS CMX 642A; assay: as above; settings: S. aureus CMX 642A, unit assumed
[5] = system: STAPHYLOCOCCUS AUREUS NCTC10649M; assay: as above; settings: S. aureus NCTC10649M, unit assumed
[6] = system: STAPHYLOCOCCUS AUREUS CMX 553; assay: as above; settings: S. aureus CMX 553, unit assumed
[7] = system: STAPHYLOCOCCUS AUREUS 1775; assay: as above; settings: S. aureus 1775, unit assumed
[8] = system: STAPHYLOCOCCUS EPIDERMIDIS 3519; settings: S. epidermidis 3519; BHI agar; unit assumed
[9] = system: EN[…] ATCC 8043; assay: In vitro antibacterial activity, MIC, BHI agar dilution; settings: E. faecium ATCC 8043, unit assumed
Method in brief: (§1)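 Twelve successive aqueous dilutions of compound in Brain Heart Infusion agar were inoculated with 1:100 culture dilutions (1:10 for slow growers such as Micrococcus, Streptococcus) by Steers replicator and incubated at 35-37° C for 20 to 24 hours. MIC was the lowest concentration giving no growth, slight haze or sparse colonies versus drug-free control.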

[10] = system: M[…] ATCC 4698; assay: as above; settings: M. luteus ATCC 4698, unit assumed
Method in brief: as §1

[11] = system: M[…] ATCC 9341; assay: as above; settings: M. luteus ATCC 9341, unit assumed
Method in brief: as §1

[12] = system: STR[…] 508; assay: as above; settings: S. agalactiae CMX 508, unit assumed
Method in brief: as §1

[13] = system: STREPTOCOCCUS BOVIS A-5169; assay: as above; settings: S. bovis A-5169, unit assumed
[14] = system: STREPTOCOCCUS PYOGENES EES61; assay: as above; settings: S. pyogenes EES61, unit assumed
[15] = system: STREPTOCOCCUS PYOGENES 930; assay: as above; settings: S. pyogenes 930, unit assumed
[16] = system: STREPTOCOCCUS PYOGENES PIU 2548; assay: as above; settings: S. pyogenes PIU 2548, unit assumed
[17] = system: ESCHERICHIA COLI JUHL; settings: E. coli JUHL; BHI agar; unit assumed
[18] = system: ESCHERICHIA COLI SS; assay: In vitro antibacterial activity, MIC, BHI agar dilution; settings: E. coli SS, unit assumed
[19] = system: ESCHERICHIA COLI DC-2; assay: as above; settings: E. coli DC-2, unit assumed
[20] = system: ESCHERICHIA COLI H560; assay: as above; settings: E. coli H560, unit assumed
[21] = system: ESCHERICHIA COLI KNK 437; settings: E. coli KNK 437; BHI agar; unit assumed
[22] = system: ENTEROBACTER AEROGENES ATCC 13048; assay: In vitro antibacterial activity, MIC, BHI agar dilution; settings: E. aerogenes ATCC 13048, unit assumed
[23] = system: KLEBSIELLA PNEUMONIAE ATCC 8045; assay: as above; settings: K. pneumoniae ATCC 8045, unit assumed
[24] = system: PROVIDENCIA STUARTII CMX 640; settings: P. stuartii CMX 640; BHI agar; unit assumed
[25] = system: PSEUDOMONAS AERUGINOSA BMH10; assay: In vitro antibacterial activity, MIC, BHI agar dilution; settings: P. aeruginosa BMH10, unit assumed
[26] = system: PSEUDOMONAS AERUGINOSA 5007; assay: as above; settings: P. aeruginosa 5007, unit assumed
[27] = system: PSEUDOMONAS AERUGINOSA K799/WT; assay: as above; settings: P. aeruginosa K799/WT, unit assumed
[28] = system: PSEUDOMONAS AERUGINOSA K799/61; assay: as above; settings: P. aeruginosa K799/61, unit assumed
[29] = system: PSEUDOMONAS CEPACIA 296I; assay: as above; settings: P. cepacia 296I, unit assumed
[30] = system: ACINETOBACTER CALCOACETICUS CMX 669; assay: as above; settings: A. calcoaceticus CMX 669, unit assumed
[31] = system: PSEUDOMONAS AERUGINOSA DPHD-5263; assay: as above; settings: P. aeruginosa DPHD-5263, unit assumed
[32] = system: PSEUDOMONAS AERUGINOSA DPHD-2862; assay: as above; settings: P. aeruginosa DPHD-2862, unit assumed
[33] = system: CANDIDA ALBICANS CCH 442; assay: as above; settings: C. albicans CCH 442, unit assumed
[34] = system: MYCOBACTERIUM SMEGMATIS ATCC 114; assay: as above; settings: M. smegmatis ATCC 114, unit assumed

Row | SMILES | MIC [1] [µg/mL] | MIC [2] [µg/mL] | MIC [3] [µg/mL] | MIC [4] [µg/mL] | MIC [5] [µg/mL] | MIC [6] [µg/mL] | MIC [7] [µg/mL] | MIC [8] [µg/mL] | MIC [9] [µg/mL] | MIC [10] [µg/mL] | MIC [11] [µg/mL] | MIC [12] [µg/mL] | MIC [13] [µg/mL] | MIC [14] [µg/mL] | MIC [15] [µg/mL] | MIC [16] [µg/mL] | MIC [17] [µg/mL] | MIC [18] [µg/mL] | MIC [19] [µg/mL] | MIC [20] [µg/mL] | also measured
1 | CC[C@H]1OC(=O)[C@H](C)C(=O)[C@H](C)[C@@H](O[C@@H]2O[C@H](C)C[C@H](N(C)C)[C@H]2O)[C@](C)(OC)C[C@@H](C)C2=NC[C@H](Cc3ccc(O)cc3)N3C(=O)O[C@@]1(C)[C@H]3[C@H]2C [Example 65] | 0.39 (≈ 0.524 µM) | 0.39 (≈ 0.524 µM) | > 100 | 0.39 (≈ 0.524 µM) | 0.39 (≈ 0.524 µM) | 0.39 (≈ 0.524 µM) | > 100 | 0.39 (≈ 0.524 µM) | 0.1 (≈ 0.134 µM) | 0.39 (≈ 0.524 µM) | 0.05 (≈ 0.0672 µM) | 0.02 (≈ 0.0269 µM) | 0.01 (≈ 0.0134 µM) | 0.02 (≈ 0.0269 µM) | > 100 | 1.56 (≈ 2.1 µM) | 50 (≈ 67.2 µM) | 0.39 (≈ 0.524 µM) | 50 (≈ 67.2 µM) | 50 (≈ 67.2 µM) | MIC [21]: 100 µg/mL (≈ 134 µM); MIC [22]: > 100 µg/mL; MIC [23]: > 100 µg/mL; MIC [24]: > 100 µg/mL; MIC [25]: > 100 µg/mL; MIC [26]: > 100 µg/mL; MIC [27]: > 100 µg/mL; MIC [28]: 0.78 µg/mL (≈ 1.05 µM); MIC [29]: 100 µg/mL (≈ 134 µM); MIC [30]: 100 µg/mL (≈ 134 µM); MIC [31]: > 100 µg/mL; MIC [32]: > 100 µg/mL; MIC [33]: > 100 µg/mL; MIC [34]: 6.2 µg/mL (≈ 8.33 µM)
2 | CC[C@H]1OC(=O)[C@H](C)C(=O)[C@H](C)[C@@H](O[C@@H]2O[C@H](C)C[C@H](N(C)C)[C@H]2O)[C@](C)(OC)C[C@@H](C)C2=N[C@H](COCc3ccc(C(=O)OC)cc3)CN3C(=O)O[C@@]1(C)[C@H]3[C@H]2C [Example 84] | 0.2 (≈ 0.245 µM) | 0.2 (≈ 0.245 µM) | > 100 | 0.2 (≈ 0.245 µM) | 0.2 (≈ 0.245 µM) | 0.2 (≈ 0.245 µM) | > 100 | 0.39 (≈ 0.478 µM) | 0.05 (≈ 0.0613 µM) | 0.39 (≈ 0.478 µM) | 0.1 (≈ 0.123 µM) | 0.02 (≈ 0.0245 µM) | ≤ 0.005 | 0.02 (≈ 0.0245 µM) | 100 (≈ 123 µM) | 0.2 (≈ 0.245 µM) | > 100 | 1.56 (≈ 1.91 µM) | > 100 | > 100 | MIC [21]: > 100 µg/mL; MIC [22]: > 100 µg/mL; MIC [23]: > 100 µg/mL; MIC [24]: > 100 µg/mL; MIC [25]: > 100 µg/mL; MIC [26]: > 100 µg/mL; MIC [27]: > 100 µg/mL; MIC [28]: 3.1 µg/mL (≈ 3.8 µM); MIC [29]: > 100 µg/mL; MIC [30]: > 100 µg/mL; MIC [31]: > 100 µg/mL; MIC [32]: > 100 µg/mL; MIC [33]: > 100 µg/mL; MIC [34]: 0.78 µg/mL (≈ 0.956 µM)
3 | CC[C@H]1OC(=O)[C@H](C)C(=O)[C@H](C)[C@@H](O[C@@H]2O[C@H](C)C[C@H](N(C)C)[C@H]2O)[C@](C)(OC)C[C@@H](C)C2=N[C@H](COCc3ccnc4ccccc34)CN3C(=O)O[C@@]1(C)[C@H]3[C@H]2C [Example 85] | 0.2 (≈ 0.247 µM) | 0.2 (≈ 0.247 µM) | > 100 | 0.2 (≈ 0.247 µM) | 0.39 (≈ 0.482 µM) | 0.2 (≈ 0.247 µM) | > 100 | 0.2 (≈ 0.247 µM) | 0.02 (≈ 0.0247 µM) | 0.78 (≈ 0.964 µM) | 0.02 (≈ 0.0247 µM) | 0.02 (≈ 0.0247 µM) | 0.01 (≈ 0.0124 µM) | ≤ 0.005 | 100 (≈ 124 µM) | 0.1 (≈ 0.124 µM) | > 100 | 0.78 (≈ 0.964 µM) | > 100 | > 100 | MIC [21]: > 100 µg/mL; MIC [22]: > 100 µg/mL; MIC [23]: > 100 µg/mL; MIC [24]: > 100 µg/mL; MIC [25]: > 100 µg/mL; MIC [26]: > 100 µg/mL; MIC [27]: > 100 µg/mL; MIC [28]: 3.1 µg/mL (≈ 3.83 µM); MIC [29]: 100 µg/mL (≈ 124 µM); MIC [30]: 100 µg/mL (≈ 124 µM); MIC [31]: > 100 µg/mL; MIC [32]: > 100 µg/mL; MIC [33]: > 100 µg/mL; MIC [34]: 3.1 µg/mL (≈ 3.83 µM)
